Reference: patent publication US20150105252A1, “SUBSTITUTED PYRAZOLES AS HERBICIDES” (E I DU PONT DE NEMOURS AND COMPANY, priority 2013, published 2015)

Columns and labels:
[1] = system: ducksalad; test: Test B flood; type: in vivo, Heteranthera limosa; conditions: 250 g ai/ha, visual rating on 0 to 100 scale (0 no effect, 100 complete control), 13 to 15 days
Outline: (§1)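 Greenhouse assay lasting 13 to 15 days. Treatment was into water flooding pots 3 cm deep, at the 2-leaf stage, with that level sustained afterwards. Scores compare treated with control plants visually, 100 denoting complete control and 0 no effect; a dash marks no test result.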

[2] = system: ragweed; test: Test C postemergence; type: in vivo, Ambrosia elation
Text: (§2) Seeds of plant species selected from blackgrass (Alopecurus myosuroides), ryegrass, Italian (Italian ryegrass, Lolium multiflorum), wheat (winter wheat, Triticum aestivum), galium (catchweed bedstraw, Galium aparine), corn (Zea mays), crabgrass, large (large crabgrass, Digitaria sanguinalis), foxtail, giant (giant foxtail, Setaria faberii), johnsongrass (Sorghum halepense), lambsquarters (Chenopodium album), morningglory (Ipomoea coccinea), nutsedge, yellow (yellow nutsedge, Cyperus esculentus), pigweed (redroot pigweed, Amaranthus retroflexus), ragweed (common ragweed, Ambrosia elation), soybean (Glycine max), barnyardgrass (Echinochloa crus-galli), oilseed rape (Brassica napus), waterhemp (common waterhemp, Amaranthus rudis), oat, wild (wild oat, Avena fatua), kochia (Kochia scoparia), Surinam grass (Brachiaria decumbens), foxtail, green (green foxtail, Setaria viridis), goosegrass (Eleusine indica), bromegrass, downy (downy bromegrass, Bromus tectorum), nightshade (eastern black nightshade, Solanum ptycanthum), cocklebur (common cocklebur, Xanthium strumarium), cupgrass, woolly (woolly cupgrass, Eriochloa villosa), bermudagrass (Cynodon dactylon), sunflower, (common oilseed sunflower, Helianthus annuus), Russian thistle (Salsola kali), and velvetleaf (Abutilon theophrasti) were planted into a blend of loam soil and sand and treated preemergence with test chemicals formulated in a non-phytotoxic solvent mixture which included a surfactant.
(§3) At the same time, plants selected from these crop and weed species and also chickweed (common chickweed, Stellaria media), canarygrass (littleseed canarygrass, Phalaris minor), and deadnettle (henbit deadnettle, Lamium amplexicaule), were planted in pots containing Redi-Earth® planting medium (Scotts Company, 14111 Scottslawn Road, Marysville, Ohio 43041) comprising spaghnum peat moss, vermiculite, wetting agent and starter nutrients and treated with postemergence applications of test chemicals formulated in the same manner. Plants ranged in height from 2 to 18 cm (1- to 4-leaf stage) for postemergence treatments. Treated plants and controls were maintained in a greenhouse for 13 to 15 days, after which time all species were compared to controls and visually evaluated. Plant response ratings, summarized in Table C, are based on a scale of 0 to 100 where 0 is no effect and 100 is complete control. A dash (-) response means no test result.

[3] = system: oat, wild; test: Test C postemergence; type: in vivo, Avena fatua; conditions: for Plant response rating (scale of 0 to 100 where 0 is no effect and 100 is complete control), Oat, Wild: Postemergence, 31 g ai/ha, visually evaluated after 13 to 15 days; for Oat, Wild plant response rating / Plant response rating, Oat, Wild: postemergence; for Oat, Wild plant response rating: 62 g ai/ha, scale 0 to 100
Text: as §2, §3

[4] = system: crabgrass, large; test: Test C postemergence; type: in vivo, Digitaria sanguinalis; conditions: for Plant response rating (scale of 0 to 100 where 0 is no effect and 100 is complete control), Crabgrass, Large: Postemergence, 31 g ai/ha, visually evaluated after 13 to 15 days; for Crabgrass, Large plant response rating / Plant response rating, Crabgrass, Large: postemergence; for Crabgrass, Large plant response rating: 62 g ai/ha, scale 0 to 100
Text: as §2, §3

[5] = system: corn; test: Test A postemergence; type: in vivo, Zea mays
Outline: (§4)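 Ratings express plant response from 0 (no effect) to 100 (complete control), judged visually against untreated controls after approximately 10 days in the greenhouse. Preemergence applications were made as directed soil sprays onto seeded loam–sand mix, and postemergence applications onto 2–10 cm plants at one- to two-leaf stage.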

[6] = system: barnyardgrass; test: Test C postemergence; type: in vivo, Echinochloa crus-galli; conditions: for Plant response rating (scale of 0 to 100 where 0 is no effect and 100 is complete control), Barnyardgrass: Postemergence, 31 g ai/ha, visually evaluated after 13 to 15 days; for Barnyardgrass plant response rating / Plant response rating, Barnyardgrass: postemergence; for Barnyardgrass plant response rating: 62 g ai/ha, scale 0 to 100
Text: as §2, §3

[7] = system: pigweed; test: Test A postemergence; type: in vivo, Amaranthus retroflexus
Outline: as §4

[8] = system: rice; test: Test B flood; type: in vivo, Oryza sativa; conditions: 250 g ai/ha, visual rating on 0 to 100 scale (0 no effect, 100 complete control), 13 to 15 days
Outline: as §1

[9] = system: barnyardgrass; test: Test A postemergence; type: in vivo, Echinochloa crus-galli
Outline: as §4

[10] = system: barnyardgrass; test: Test A preemergence; type: in vivo, Echinochloa crus-galli; conditions: preemergence
Outline: as §4

[11] = postemergence, 250 g ai/ha, scale 0 to 100 (0 no effect, 100 complete control)
[12] = postemergence, 125 g ai/ha, scale 0 to 100, 0 no effect, 100 complete control
[13] = 250 g ai/ha, scale 0 to 100 (0 no effect, 100 complete control)
[14] = 125 g ai/ha, scale 0 to 100, 0 no effect, 100 complete control
[15] = Postemergence, 500 g ai/ha, 0 to 100 scale (0 no effect, 100 complete control)
[16] = postemergence, 125 g ai/ha, about 10 days, visual rating on 0 to 100 scale (0 no effect, 100 complete control)
[17] = 500 g ai/ha, visual injury after approx. 10 days, 0 to 100 scale (0 no effect, 100 complete control)

Compound	Plant response rating, Ducksalad [1]	Plant response rating, Ragweed [2, 11]	Plant response rating, Ragweed [2, 12]	Plant response rating (scale of 0 to 100 where 0 is no effect and 100 is complete control), Oat, Wild [3]	Oat, Wild plant response rating [3]	Plant response rating, Oat, Wild [3, 13]	Plant response rating, Oat, Wild [3, 14]	Plant response rating (scale of 0 to 100 where 0 is no effect and 100 is complete control), Crabgrass, Large [4]	Crabgrass, Large plant response rating [4]	Plant response rating, Crabgrass, Large [4, 13]	Plant response rating, Crabgrass, Large [4, 14]	Corn plant response rating [5, 15]	Corn plant response rating [5, 16]	Plant response rating (scale of 0 to 100 where 0 is no effect and 100 is complete control), Barnyardgrass [6]	Barnyardgrass plant response rating [6]	Plant response rating, Barnyardgrass [6, 13]	Plant response rating, Barnyardgrass [6, 14]	Pigweed plant response rating [7, 15]	Plant response rating, Rice [8]	Barnyardgrass plant response rating [9, 15]	other results
CCCc1cc(C(=O)NCC(F)(F)F)nn1Cc1cc(C(F)(F)F)nn1C [Compound 138]	80	60	50	10	20	30	10	5	5	70	30	90	80	10	25	65	20	100	50	100	Plant response rating (scale of 0 to 100 where 0 is no effect and 100 is complete control), Ragweed ([2]; Postemergence, 31 g ai/ha, visually evaluated after 13 to 15 days): 10; Ragweed plant response rating ([2]; postemergence, 62 g ai/ha, scale 0 to 100): 30; Pigweed plant response rating [7, 16]: 100; Barnyardgrass plant response rating [9, 16]: 100; Barnyardgrass plant response rating ([10]; 125 g ai/ha, visual injury, 0 to 100 scale, approx. 10 days): 100; Barnyardgrass plant response rating [10, 17]: 100
CCc1cc(C(=O)NCC(F)(F)F)nn1Cc1cc(OC(F)F)nn1C [Compound 206]	0	20	35	0	0	5	5	5	5	5	5	60	30	5	5	5	5	100	0	60	Pigweed plant response rating ([7]; Postemergence, 125 g ai/ha, 0 to 100 scale, 0 no effect, 100 complete control): 80; Barnyardgrass plant response rating [9, 16]: 0; Barnyardgrass plant response rating (0 to 100 scale, 0 is no effect, 100 is complete control) ([10]; 125 g ai/ha, visual injury approx. 10 days after treatment): 0; Barnyardgrass plant response rating [10, 17]: 90
